Where two headings read alike, the source gives them in different places.
Columns and labels:
[1] = target: T1, recombinant human Icmt (Homo sapiens, UniProt O60725); experiment: Icmt assay: [3H]methyl incorporation from [3H]AdoMet into BFC; format: biochemical
T1 construct: recombinant baculovirus containing the entire open reading frame of the human Icmt cDNA; made in house; host or cells: Sf9 insect cells (baculovirus); membrane fraction used

[2] = system: DKOB8/GFP-Icmt colon cancer cells; experiment: Soft agar growth assay, DKOB8/GFP-Icmt; format: cell-based; settings: 20 μM, three weeks; elevated Icmt activity
Protocol: FIGS. 4A-4C. Overexpression of Icmt rescues EGF-stimulated MAPK activation and anchorage-independent growth in cysmethynil-treated cells. FIG. 4A. Creation of cell lines stably overexpressing Icmt. DKOB8 cells were engineered to stably express either GFP alone or a GFP-Icmt fusion protein. Membrane fractions from GFP and GFP-ICMT expressing lines were assayed for Icmt activity using the BFC assay. FIG. 4B. Overexpression of Icmt restores EGF-stimulated MAPK activation in cysmethynil-treated cells. […] Where indicated, cells were treated with EGF for the final 10 min prior to harvesting. Cell lysates containing equal amounts of protein were resolved on a 13% SDS-polyacrylamide gel and probed with antiphospho-p42/44 MAPK or, as a control, antiphospho NFκB antibody as indicated. FIG. 4C. […] After 3 weeks of growth, colonies were stained with MTT and imaged. Soft agar culture media was prepared with 10% FBS in 1× minimum essential medium (MEM) alpha. […] Cells were harvested by trypsinization at ˜80% confluence, mixed into top agar (10,000 cells/plate; 0.3% noble agar in soft agar culture media) and poured onto prepared plates. […] For each condition, triplicate samples (each consisting of three plates) were prepared. […]

[3] = system: p42/44 MAPK phosphorylation in DKOB8 colon cancer cells; experiment: Phosphoprotein analysis: EGF-stimulated p42/44 MAPK; format: cell-based; settings: 1 μM, three days, 1% serum, EGF 10 min
Protocol: FIGS. 3A and 3B. Impact of cysmethynil treatment on Ras localization and signaling. FIG. 3A. Mislocalization of GFP Ras in cysmethynil treated cells. […] Live cells were imaged on a spinning disk confocal microscope. FIG. 3B. Impact of cysmethynil treatment on EGF-stimulated protein phosphorylation. […] Where indicated, cells were treated with EGF for the final 10 min prior to harvesting. Cell lysates containing equal amounts of protein were resolved on a 13% SDS-polyacrylamide gel and probed with antiphospho-Akt, antiphospho-p42/44 MAPK or anti-β-tubulin antibody as indicated. […] Half of the wells were then treated with EGF (10 ng/ml) and half with vehicle for 10 min. Cells were rinsed with PBS and harvested in SDS-PAGE loading buffer. Total cell lysates (30 μg protein) were resolved on 4-20% Tris-glycine polyacrylamide gels (Invitrogen). Proteins were transferred to nitrocellulose and probed with a mix of anti-phospho-Akt and anti-phospho-p42/44 MAPK antibodies, or with anti-tubulin or anti-phospho NFκB antibody (Cell Signaling Technology) as indicated. Visualization was performed with alkaline phosphatase (Promega, Madison, Wis.) as per the manufacturer's instructions.

[4] = target: SssI DNA methyltransferase (Spiroplasma monobiae, UniProt P15840); experiment: AdoMet-dependent DNA methyltransferase inhibition (results not shown); format: biochemical; settings: concentrations up to 50 μM
[5] = system: GFP-tagged K-Ras in MDCK cells; experiment: Localization of GFP-K-Ras in MDCK cells; format: cell-based; settings: 10, 20, 30 μM; 72 h
Protocol: FIGS. 3A and 3B. Impact of cysmethynil treatment on Ras localization and signaling. FIG. 3A. Mislocalization of GFP Ras in cysmethynil treated cells. […] Live cells were imaged on a spinning disk confocal microscope. FIG. 3B. Impact of cysmethynil treatment on EGF-stimulated protein phosphorylation. […] Where indicated, cells were treated with EGF for the final 10 min prior to harvesting. Cell lysates containing equal amounts of protein were resolved on a 13% SDS-polyacrylamide gel and probed with antiphospho-Akt, antiphospho-p42/44 MAPK or anti-β-tubulin antibody as indicated. MDCK cells stably expressing GFP-H-Ras, GFP-K-Ras or GFP-N-Ras were grown on 35 mm coverslip dishes (MatTek Corporation, Ashland, Mass.) treated with poly-D-lysine. MDCK cells expressing […] were prepared by transient transfection of the Yes-GFP construct (McCabe and Berthiaume, Mol Cell Biol 10:3771-3786 (1999)) using Superfect reagent (Quiagen, Valencia, Calif.) following the manufacturer's instructions. […] Cells were imaged 72 h after drug treatment (24 h for transiently transfected cells) on an Olympus IX70 inverted microscope (Melville, N.Y.) with an UltraView spinning-disk confocal (PerkinElmer LAS, Wellesley, Mass.) and a Krypton/Argon laser, 488 nm line, attached to a cooled-CCD camera (Hamamatsu, Bridgewater, N.J.). […]

T1 sequence (O60725 whole entry): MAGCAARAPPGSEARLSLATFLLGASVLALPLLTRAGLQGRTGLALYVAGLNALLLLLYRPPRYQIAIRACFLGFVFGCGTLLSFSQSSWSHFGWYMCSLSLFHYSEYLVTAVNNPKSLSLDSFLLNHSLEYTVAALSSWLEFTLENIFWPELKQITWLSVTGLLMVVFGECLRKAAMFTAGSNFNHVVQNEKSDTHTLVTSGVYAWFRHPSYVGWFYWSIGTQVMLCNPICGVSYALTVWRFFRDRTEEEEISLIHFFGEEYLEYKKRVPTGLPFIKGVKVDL
Chain of SssI DNA methyltransferase (P15840 whole entry): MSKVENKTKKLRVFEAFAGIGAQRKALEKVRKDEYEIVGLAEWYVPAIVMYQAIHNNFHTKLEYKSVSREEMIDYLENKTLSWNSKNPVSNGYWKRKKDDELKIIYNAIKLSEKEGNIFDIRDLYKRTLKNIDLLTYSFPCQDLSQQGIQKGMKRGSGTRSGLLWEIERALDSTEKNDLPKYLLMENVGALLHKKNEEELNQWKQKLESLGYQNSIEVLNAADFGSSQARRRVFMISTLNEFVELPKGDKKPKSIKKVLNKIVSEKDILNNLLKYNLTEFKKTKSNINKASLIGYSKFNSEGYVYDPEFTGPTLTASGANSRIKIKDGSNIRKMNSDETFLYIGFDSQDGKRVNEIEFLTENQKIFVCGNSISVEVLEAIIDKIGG

CCCCCCCCn1cc(CC(N)=O)c2cc(-c3cccc(C)c3)ccc21 [cysmethynil, 2-[5-(3-methylphenyl)-1-octyl-1H-indol-3-yl]acetamide]
IC50 ([1]; BFC substrate, substrates and inhibitor premixed, reaction initiated by addition of enzyme, read-out: IC50 for Icmt inhibition): 2400 nM
IC50 ([1]; Table 1, R1 substituent x scaffold matrix, read-out: IC50): 2100 ± 900 nM
IC50 ([1]; Table 3, pre-incubation with Icmt for 30 min at 37° C., read-out: IC50 PI (converted)): 290 nM
IC50 ([1]; Table 3, without pre-incubation of the enzyme with the compound, read-out: IC50 No PI): 2100 ± 900 nM
IC50 ([1]; enzyme premixed with inhibitor and AdoMet for 15 min prior to initiation with BFC, read-out: IC50 for Icmt inhibition): < 200 nM
ability of cells to form colonies in soft agar [2]: rescue the ability of the cells to form colonies
EGF-induced increase in MAPK [3]: almost completely blocked
inhibition of SssI DNA methyltransferase [4]: nor did it inhibit
localization of GFP-K-Ras [5]: dose-dependent mislocalization

— patent publication US7964629B2, “Inhibitors of isoprenylcysteine carboxyl methyltransferase” (Duke Universtiy, priority 2005, dated 2011)
